From ChEMBL document CHEMBL1629667, “Activities of dalbavancin against a worldwide collection of 81,673 gram-positive bacterial isolates” (2009)
In brackets after ≈: the same amount, converted by molar mass.

Experiments:
[1] = tested on: Staphylococcus aureus; experiment: Antimicrobial activity against Oxacillin-susceptible Staphylococcus aureus assessed as percent resistant isolates by broth microdilution method; assay type: functional
[2] = tested on: Staphylococcus aureus; experiment: Antimicrobial activity against Oxacillin-susceptible Staphylococcus aureus by broth microdilution method; assay type: functional
[3] = tested on: Staphylococcus aureus; experiment: Antimicrobial activity against Oxacillin-resistant Staphylococcus aureus by broth microdilution method; assay type: functional
[4] = tested on: Staphylococcus; experiment: Antimicrobial activity against Oxacillin-susceptible coagulase-negative Staphylococcus by broth microdilution method; assay type: functional
[5] = tested on: Staphylococcus; experiment: Antimicrobial activity against Oxacillin-resistant coagulase-negative Staphylococcus by broth microdilution method; assay type: functional
[6] = tested on: Streptococcus; experiment: Antimicrobial activity against Beta-hemolytic Streptococcus by broth microdilution method; assay type: functional
[7] = tested on: Streptococcus; experiment: Antimicrobial activity against viridans group Streptococcus by broth microdilution method; assay type: functional
[8] = tested on: Staphylococcus aureus; experiment: Antimicrobial activity against Oxacillin-susceptible Staphylococcus aureus assessed as percent susceptible isolate by broth microdilution method; assay type: functional
[9] = tested on: Staphylococcus aureus; experiment: Antimicrobial activity against Oxacillin-resistant Staphylococcus aureus assessed as percent susceptible isolate by broth microdilution method; assay type: functional
[10] = tested on: Staphylococcus; experiment: Antimicrobial activity against Oxacillin-susceptible coagulase-negative Staphylococcus assessed as percent susceptible isolate by broth microdilution method; assay type: functional
[11] = tested on: Staphylococcus; experiment: Antimicrobial activity against Oxacillin-resistant coagulase-negative Staphylococcus assessed as percent susceptible isolate by broth microdilution method; assay type: functional
[12] = tested on: Streptococcus; experiment: Antimicrobial activity against viridans group Streptococcus assessed as percent susceptible isolate by broth microdilution method; assay type: functional
[13] = tested on: Enterococcus faecalis; experiment: Antimicrobial activity against Enterococcus faecalis VanA assessed as growth inhibition at 0.06 ug/ml by broth microdilution method; assay type: functional
[14] = tested on: Enterococcus faecalis; experiment: Antimicrobial activity against Enterococcus faecalis VanA assessed as growth inhibition at 1 ug/ml by broth microdilution method; assay type: functional
[15] = tested on: Enterococcus faecalis; experiment: Antimicrobial activity against Enterococcus faecalis VanA assessed as growth inhibition at 2 ug/ml by broth microdilution method; assay type: functional
[16] = tested on: Enterococcus faecalis; experiment: Antimicrobial activity against Enterococcus faecalis VanB assessed as growth inhibition at =<[…] ug/ml by broth microdilution method; assay type: functional
[17] = tested on: Enterococcus faecalis; experiment: Antimicrobial activity against Enterococcus faecalis VanB assessed as growth inhibition at 0.06 ug/ml by broth microdilution method; assay type: functional
[18] = tested on: Enterococcus faecalis; experiment: Antimicrobial activity against Enterococcus faecalis VanB assessed as growth inhibition at 2 ug/ml by broth microdilution method; assay type: functional
[19] = tested on: Enterococcus faecalis; experiment: Antimicrobial activity against Enterococcus faecalis VanB assessed as growth inhibition at 4 ug/ml by broth microdilution method; assay type: functional
[20] = tested on: Enterococcus faecium; experiment: Antimicrobial activity against Enterococcus faecium VanA assessed as growth inhibition at =<[…] ug/ml by broth microdilution method; assay type: functional
[21] = tested on: Enterococcus faecium; experiment: Antimicrobial activity against Enterococcus faecium VanA assessed as growth inhibition at 0.06 ug/ml by broth microdilution method; assay type: functional
[22] = tested on: Enterococcus faecium; experiment: Antimicrobial activity against Enterococcus faecium VanA assessed as growth inhibition at 0.25 ug/ml by broth microdilution method; assay type: functional
[23] = tested on: Enterococcus faecium; experiment: Antimicrobial activity against Enterococcus faecium VanA assessed as growth inhibition at 0.5 ug/ml by broth microdilution method; assay type: functional
[24] = tested on: Enterococcus faecium; experiment: Antimicrobial activity against Enterococcus faecium VanA assessed as growth inhibition at 2 ug/ml by broth microdilution method; assay type: functional
[25] = tested on: Enterococcus faecium; experiment: Antimicrobial activity against Enterococcus faecium VanA assessed as growth inhibition at 4 ug/ml by broth microdilution method; assay type: functional
[26] = tested on: Enterococcus faecium; experiment: Antimicrobial activity against Enterococcus faecium VanB assessed as growth inhibition at 0.06 ug/ml by broth microdilution method; assay type: functional
[27] = tested on: Enterococcus faecium; experiment: Antimicrobial activity against Enterococcus faecium VanB assessed as growth inhibition at 0.12 ug/ml by broth microdilution method; assay type: functional
[28] = tested on: Enterococcus faecium; experiment: Antimicrobial activity against Enterococcus faecium VanB assessed as growth inhibition at 0.25 ug/ml by broth microdilution method; assay type: functional
[29] = tested on: Enterococcus faecium; experiment: Antimicrobial activity against Enterococcus faecium VanB assessed as growth inhibition at 0.5 ug/ml by broth microdilution method; assay type: functional
[30] = tested on: Enterococcus faecium; experiment: Antimicrobial activity against Enterococcus faecium VanB assessed as growth inhibition at 1 ug/ml by broth microdilution method; assay type: functional
[31] = tested on: Enterococcus faecium; experiment: Antimicrobial activity against Enterococcus faecium VanB assessed as growth inhibition at 2 ug/ml by broth microdilution method; assay type: functional
[32] = tested on: Enterococcus faecium; experiment: Antimicrobial activity against Enterococcus faecium VanB assessed as growth inhibition at 4 ug/ml by broth microdilution method; assay type: functional
[33] = tested on: Streptococcus sp. 'group A'; experiment: Antimicrobial activity against Beta-hemolytic Streptococcus sp. 'group A' assessed as growth inhibition at 0.06 ug/ml by broth microdilution method; assay type: functional
[34] = tested on: Streptococcus sp. 'group A'; experiment: Antimicrobial activity against Beta-hemolytic Streptococcus sp. 'group A' assessed as growth inhibition at 0.12 ug/ml by broth microdilution method; assay type: functional
[35] = tested on: Streptococcus sp. 'group A'; experiment: Antimicrobial activity against Beta-hemolytic Streptococcus sp. 'group A' assessed as growth inhibition at 0.25 ug/ml by broth microdilution method; assay type: functional
[36] = tested on: Streptococcus sp. 'group B'; experiment: Antimicrobial activity against Beta-hemolytic Streptococcus sp. 'group B' assessed as growth inhibition at =<[…] ug/ml by broth microdilution method; assay type: functional
[37] = tested on: Streptococcus sp. 'group B'; experiment: Antimicrobial activity against Beta-hemolytic Streptococcus sp. 'group B' assessed as growth inhibition at 0.06 ug/ml by broth microdilution method; assay type: functional
[38] = tested on: Streptococcus sp. 'group B'; experiment: Antimicrobial activity against Beta-hemolytic Streptococcus sp. 'group B' assessed as growth inhibition at 0.12 ug/ml by broth microdilution method; assay type: functional
[39] = tested on: Streptococcus sp. 'group B'; experiment: Antimicrobial activity against Beta-hemolytic Streptococcus sp. 'group B' assessed as growth inhibition at 0.25 ug/ml by broth microdilution method; assay type: functional
[40] = Antimicrobial activity against Beta-hemolytic Streptococcus sp. 'group C' assessed as growth inhibition at =<[…] ug/ml by broth microdilution method; assay type: functional
[41] = Antimicrobial activity against Beta-hemolytic Streptococcus sp. 'group C' assessed as growth inhibition at 0.06 ug/ml by broth microdilution method; assay type: functional
[42] = Antimicrobial activity against Beta-hemolytic Streptococcus sp. 'group G' assessed as growth inhibition at =<[…] ug/ml by broth microdilution method; assay type: functional
[43] = Antimicrobial activity against Beta-hemolytic Streptococcus sp. 'group G' assessed as growth inhibition at 0.06 ug/ml by broth microdilution method; assay type: functional
[44] = Antimicrobial activity against Beta-hemolytic Streptococcus sp. 'group G' assessed as growth inhibition at 0.12 ug/ml by broth microdilution method; assay type: functional
[45] = tested on: Streptococcus sp.; experiment: Antimicrobial activity against Beta-hemolytic Streptococcus sp. […]; assay type: functional, Group F
[46] = tested on: Streptococcus sp.; experiment: Antimicrobial activity against Beta-hemolytic Streptococcus sp. Group F assessed as growth inhibition at 0.06 ug/ml by broth microdilution method; assay type: functional
[47] = tested on: Streptococcus sp.; experiment: Antimicrobial activity against Beta-hemolytic Streptococcus sp. Group F assessed as growth inhibition at 0.12 ug/ml by broth microdilution method; assay type: functional
[48] = tested on: Staphylococcus; experiment: Antimicrobial activity against Oxacillin-susceptible coagulase-negative Staphylococcus assessed as percent resistant isolate by broth microdilution method; assay type: functional

CN[C@H](CC(C)C)C(=O)N[C@H]1C(=O)N[C@@H](CC(N)=O)C(=O)N[C@H]2C(=O)N[C@H]3C(=O)N[C@H](C(=O)N[C@H](C(=O)O)c4cc(O)cc(O)c4-c4cc3ccc4O)[C@H](O)c3ccc(c(Cl)c3)Oc3cc2cc(c3O[C@@H]2O[C@H](CO)[C@@H](O)[C@H](O)[C@H]2O[C@H]2C[C@](C)(N)[C@H](O)[C@H](C)O2)Oc2ccc(cc2Cl)[C@H]1O [VANCOMYCIN]
Activity [1]: 0%
MIC50 [2]: 1 µg/mL (≈ 0.69 µM)
MIC90 [2]: 1 µg/mL (≈ 0.69 µM)
MIC50 [3]: 1 µg/mL (≈ 0.69 µM)
MIC90 [3]: 1 µg/mL (≈ 0.69 µM)
MIC50 [4]: 1 µg/mL (≈ 0.69 µM)
MIC90 [4]: 2 µg/mL (≈ 1.38 µM)
MIC50 [5]: 1 µg/mL (≈ 0.69 µM)
MIC90 [5]: > 2 µg/mL
MIC50 [6]: 0.5 µg/mL (≈ 0.345 µM)
MIC90 [6]: 0.5 µg/mL (≈ 0.345 µM)
MIC50 [7]: 0.5 µg/mL (≈ 0.345 µM)
MIC90 [7]: 1 µg/mL (≈ 0.69 µM)
Activity [8]: >99.9%
Activity [9]: >99.9%
Activity [10]: 100%
Activity [11]: >99.9%
Activity [12]: 99.9%
inhibition at 0.06 µg/mL [13]: 0.9%
inhibition at 1 µg/mL [14]: 4.3%
inhibition at 2 µg/mL [15]: 7.4%
inhibition (INH) [16]: 9.5%
inhibition at 0.06 µg/mL [17]: 33.3%
inhibition at 2 µg/mL [18]: 85.7%
inhibition at 4 µg/mL [19]: 91.7%
inhibition (INH) [20]: 0.1%
inhibition at 0.06 µg/mL [21]: 0.3%
inhibition at 0.25 µg/mL [22]: 3.1%
inhibition at 0.5 µg/mL [23]: 6.6%
inhibition at 2 µg/mL [24]: 18.3%
inhibition at 4 µg/mL [25]: 33.1%
inhibition at 0.06 µg/mL [26]: 56%
inhibition at 0.12 µg/mL [27]: 71.6%
inhibition at 0.25 µg/mL [28]: 77.6%
inhibition at 0.5 µg/mL [29]: 85.1%
inhibition at 1 µg/mL [30]: 90.3%
inhibition at 2 µg/mL [31]: 94%
inhibition at 4 µg/mL [32]: 97.8%
inhibition at 0.06 µg/mL [33]: 99.9%
inhibition at 0.12 µg/mL [34]: > 99.9%
inhibition at 0.25 µg/mL [35]: 100%
inhibition (INH) [36]: 90.3%
inhibition at 0.06 µg/mL [37]: 98%
inhibition at 0.12 µg/mL [38]: 99.6%
inhibition at 0.25 µg/mL [39]: 100%
inhibition (INH) [40]: 99.4%
inhibition at 0.06 µg/mL [41]: 100%
inhibition (INH) [42]: 95.6%
inhibition at 0.06 µg/mL [43]: 99.6%
inhibition at 0.12 µg/mL [44]: 100%
inhibition (INH) [45]: 97.1%
inhibition at 0.06 µg/mL [46]: 97.1%
inhibition at 0.12 µg/mL [47]: 100%
Activity [48]: 0%
